Assay results published in patent US20230130791A1, “A Combined Inhibition of EGFR and NRF2 in The Treatment of Malignant Glioma” (United States Government as represented by the Department …, priority 2020, published 2023).
Like-named read-outs stand apart in the source and are kept apart here.

How the values were obtained:
GBM12 cells [1] = assay: RNAseq transcriptome and pathway analysis after erlotinib; format: cell-based, human
Description: These q-values are corrected from p-values of the hypergeometric test, for multiple testing using the false discovery rate (FDR) method.

[2] = Mouse, cited from earlier work; for T½: parent drug (SASP for Sulfazaline)
[3] = Human, cited from earlier work
GBM12 cells [4] = assay: Alamarblue cell viability assay, GBM12; format: cell-based, human; settings: GBM12, 72 hours; ML385 1 μm, INH 1 μm, sulfasalazine 5 μm
Description: ML385 (1 μm) and isoniazid (INH 1 μm) are Nrf2 inhibitors while Erastin and sulfasalazine (5 μm) are xCT inhibitors.

glioma cells = assay: Cell survival/viability assays in glioma cells (general statements); format: cell-based; settings: for synergy with EGFR inhibition in cell survival assays: FIG. 5
[5] = in vivo; cited from earlier work
preclinical GBM models = assay: Preliminary orthotopic GBM experiments (FIG. 6, general statements); format: in vivo
[6] = Toxicity in mice by gavage; settings: 50-100 mg/kg by gavage
Keap1 = assay: Cellular level of total Keap1; format: cell-based; settings: data not shown
GBM 12 or GBM6 cells = assay: ROS by MitoTracker Red CM-H2XRos; format: cell-based, human; settings: erlotinib 1 uM, 24 hours
Description: Oxidative stress. Without wishing to be bound by theory, it is hypothesized that a sudden inhibition of EGFR signaling may increase oxidative stress and thus activate Nrf2. Previous studies have reported that EGFR inhibition leads to increased oxidative stress in lung and head and neck cancers (Orcutt, et al. (2011) Erlotinib-mediated inhibition of EGFR signaling induces metabolic oxidative stress through NOX4, Cancer Res 71, 3932-3940; Qian, et al. (2009) Clin Exp Pharmacol Physiol 36, 487-494). […] MitoTracker® Red CM-H2XRos (Fisher), a reduced nonfluorescent dye which is taken up passively by living cells, will be used. In the mitochondria, the dye is oxidized by superoxide, resulting in the emission of red fluorescence.
MitoTracker® Red CM-H2XRos (Fisher) was added to culture media at a concentration of 100 nM and incubated at 37° C. in a humidified incubator containing 5% CO2 for 30 minutes, the cells were then fixed in ice-cold methanol for 15 min at −20° C. followed by fluorescence microscopy.

Mayo PDX GBM12 cells = assay: GSH/GSSG ratio by metabolite profiling (LC-MS/MS); format: cell-based, human; settings: GBM12, 24 hour exposure, means±SD of four experiments
Description: Determination of GSH levels will be undertaken at a Biochemistry Core Facility at UT Southwestern using metabolite profiling as previously described (Krall, et al. (2017) KEAP1 loss modulates sensitivity to kinase targeted therapy in lung cancer, Elife 6; Yuan, et al. (2012) Nat Protoc 7, 872-881). Samples will be analyzed by liquid chromatography tandem mass spectrometry (LC-MS/MS) using positive ion/negative ion polarity switching via selected reaction monitoring (SRM) on a 5500 QTRAP hybrid triple quadrupole mass spectrometer. Peaks will be integrated using MultiQuant 2.1 data analysis software (AB/SCIEX). The ratio of reduced intracellular glutathione to oxidized glutathione is a measure of oxidative stress.
Data are presented as means±SD of four experiments. […] GSH, reduced glutathione; GSSG, oxidized glutathione.

p21 = p21 response to erlotinib (FIG. 12); format: cell-based; settings: in response to erlotinib
Description: p21. p21Cip1/WAF1 is a cyclin-dependent kinase inhibitor that regulates the cell cycle and acts as an antioxidant. The antioxidant function of p21 is mediated through stabilization of Nrf2. Thus, p21 is an interesting target for study.

[7] = TNF inhibitor added to erlotinib
[8] = parent drug (SASP for Sulfazaline)
[9] = parent drug (SASP for Sulfazaline), dose per Table 5

etanercept
block of the 40 NRF2 target genes induced by erlotinib (GBM12 cells [1]; [7]): could not be blocked | upregulation of erlotinib induced genes blocked (GBM12 cells [1]; [7]): 25%

NNC(=O)c1ccncc1 [INH, isoniazid]
AUC ([2]; 25 mg/kg QD for 4 wks): 27.3 mg·h/L | Cmax ([2]; 25 mg/kg QD for 4 wks): 22 µg/mL | AUC ([3]; 150 mg QD for 6 months): 19.7 mg·h/L | Cmax ([3]; 150 mg QD for 6 months): 4830 ng/mL | sensitization of cells to erlotinib, cell viability (GBM12 cells [4]): sensitizes | synergy with EGFR inhibition in cell survival assays (glioma cells): synergizes with EGFR inhibition | CNS penetration [5]: highly CNS penetrable | tumor growth / efficacy in orthotopic experiments (preclinical GBM models): no effect

Cc1ccccc1C(=O)N1CCc2cc(-c3nc(NC(=O)Cc4ccc5c(c4)OCO5)sc3C)ccc21 [ML385]
sensitization of cells to erlotinib, cell viability (GBM12 cells [4]): sensitizes

C#Cc1cccc(Nc2ncnc3cc(OCCOC)c(OCCOC)cc23)c1 [Erlotinib, erlotinib]
Genes, Erl-induced pathway (GBM12 cells [1]; Axon guidance): 42 | Genes, Erl-induced pathway (GBM12 cells [1]; Ectoderm Differentiation): 35 | Genes, Erl-induced pathway (GBM12 cells [1]; Glutathione conjugation): 14 | Genes, Erl-induced pathway (GBM12 cells [1]; NRF2 pathway): 40 | Genes, Erl-induced pathway (GBM12 cells [1]; Validated targets of C-MYC transcriptional repression): 23 | Genes, Erl-induced pathway (GBM12 cells [1]; Validated transcriptional targets of Tap63 isoforms): 19 | genes upregulated by RNAseq (GBM12 cells [1]; erlotinib 1 μM, 24 hours, GBM 12 cells): 3635 | GPX3 expression in GBM (GBM12 cells [1]; in response to erlotinib (FIG. 3)): upregulated | AUC ([2]; 12.5 mg/kg QD): 27,042 ng * hr/ml | Cmax ([2]; 12.5 mg/kg QD): 3,513 ng/mL | T½ [2]: 3.1 h | toxicity [6]: without significant toxicity | Cmax [3, 8]: 872 ng/mL | AUC [3, 9]: 11,860 ng * hr/ml | cellular level of total Keap1 (Keap1): not changed | ROS (Mitotracker dye) (GBM 12 or GBM6 cells): increase in ROS | GSH/GSSG (Mayo PDX GBM12 cells): 68.5 ± 15.2 | p21 level (p21): not upregulated

CN(C)C/C=C/C(=O)Nc1cc2c(Nc3ccc(F)c(Cl)c3)ncnc2cc1O[C@H]1CCOC1 [Afatinib, afatinib]
AUC ([2]; 30 mg/kg QD): (2375 nM * hr | Cmax ([2]; 30 mg/kg QD): 417 nM | T½ [2]: 5 h | AUC [3, 8]: (~1-2 μM * hr | Cmax [3, 8]: 30 to 40 ng/mL | T½ [3, 8]: 60.3 h | AUC [3, 9]: 0.459 to 0.956 mg·h/L | Cmax ([3]; read-out: Cmax): 60 to 80 nM

CCc1cc(C(N)=S)ccn1 [Ethionamide, ethionamide]
synergy with EGFR inhibition, cell viability assay (glioma cells; erlotinib 1 μM and/or ethionamide 1 μM, 72 hours): synergizes with EGFR inhibition

O=C(O)c1cc(/N=N/c2ccc(S(=O)(=O)Nc3ccccn3)cc2)ccc1O [sulfasalazine]
AUC of SASP ([2]; 67.5 mg/kg QD for 3 wks, analyte SASP): SASP: 21 μM * hr | T½ [2]: 0.9 h | AUC [3, 8]: (122 μM * hr | Cmax [3, 8]: 5351 ng/mL | T½ [3, 8]: 9.8 h | AUC [3, 9]: 48,500 ng * hr/ml | sensitization of cells to erlotinib, cell viability (GBM12 cells [4]): sensitizes | synergy with EGFR inhibition in cell survival assays (glioma cells): synergizes with EGFR inhibition
